# Results: patent US20260008758A1, “LINEAR DIPEPTIDYL PEPTIDASE 1 INHIBITORS AND USES THEREOF” (Insmed Incorporated, priority 2024, published 2026)
# Assays:
# DPP1 in HL-60 cells [1] = target: T1, DPP1 in HL-60 cells (Homo sapiens (Human), UniProt P53634); test: DPP1 Cell IC50 assay; type: cell-based; conditions: H-Gly-Phe-AFC substrate, 60 min pre-incubation
# Procedure: Media was changed every three to four days and cells were not allowed to exceed 1×10^6 cells per mL. Prior to assay, cells were collected by centrifugation at 500 rcf for 3 minutes, resuspended in PBS and counted. Cells were diluted in PBS to a concentration of 5×10^5 live cells per mL and transferred to black 96-well plates for assay, 60 μL per well. Test articles were diluted in PBS plus 0.5% DMSO, and 20 μL was added to each assay well. Compound was allowed to pre-incubate with cells with gentle shaking at 100 rpm for 60 minutes at 37° C. in a cell culture incubator maintained at 5% CO2, after which 20 μL of 500 μM H-Gly-Phe-AFC substrate (MP Biomedicals; Solon, OH) was added to each well. Plates were returned to the incubator with shaking at 100 rpm for 30 minutes, after which fluorescence was measured at Excitation/Emission 400/505 nm. % Inhibition was calculated from RFU values compared to control cell wells that received only PBS plus 0.5% DMSO. IC50 values for each compound were calculated via the XLFit (IDBS Version 5.3.1.3) Add-On to Microsoft Excel using the four parameter fit equation y=(A+((B-A)/(1+((C/x)^D)))), which appears as equation number 205 (4 Parameter Logistic Model or Sigmoidal Dose-Response Model) in XLFit.
# human DPP1 enzyme [2] = target: T2, human DPP1 enzyme (Homo sapiens (Human), UniProt P53634); test: Human DPP1 enzyme IC50 assay; type: biochemical; conditions: recombinant human DPP1, H-Gly-Arg-AMC substrate 400 μM
# T2 sequence (P53634 25-134): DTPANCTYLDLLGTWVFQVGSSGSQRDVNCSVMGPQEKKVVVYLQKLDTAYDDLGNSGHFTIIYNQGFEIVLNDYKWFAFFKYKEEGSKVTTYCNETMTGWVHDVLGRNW
# T2 sequence (P53634 231-394): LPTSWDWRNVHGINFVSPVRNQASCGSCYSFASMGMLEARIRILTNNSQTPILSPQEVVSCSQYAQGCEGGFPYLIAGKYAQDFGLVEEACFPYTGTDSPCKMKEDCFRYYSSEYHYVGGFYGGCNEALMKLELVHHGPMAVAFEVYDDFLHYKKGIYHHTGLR
# T2 sequence (P53634 395-463): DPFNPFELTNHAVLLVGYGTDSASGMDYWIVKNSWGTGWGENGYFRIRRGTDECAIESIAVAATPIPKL
# Procedure: Test articles were applied to activated human DPP1 enzyme in Assay Buffer (25 mM MES pH 6.0, 50 mM NaCl, 5 mM DTT) in a total reaction volume of 125 μL. 25 μL of compound in Assay Buffer plus 5% DMSO was first added to 50 μL of activated human DPP1 enzyme at a concentration of 1 ng/μL and allowed to pre-incubate for 10 minutes at 37° C. after which 50 μL of 1000 μM H-Gly-Arg-AMC substrate (Bachem; St. Torrance, CA) was added, giving final substrate concentration of 400 μM and a final DMSO concentration of 1%. Substrate cleavage was measured for 90 minutes at 37° C., with fluorescence at Excitation/Emission 350/450 nm measured every 5 minutes. DPP1 concentration was interpolated based on its activity relative to a standard curve of activated human recombinant DPP1 enzyme. IC50 values for each compound were calculated via the XLFit (IDBS Version 5.3.1.3) Add-On to Microsoft Excel using the four parameter fit equation y={A+[(B-A)]/[1+((C/x)^D)]}, which appears as equation number 205 (4 Parameter Logistic Model or Sigmoidal Dose-Response Model) in XLFit. Default constraints were used for each Parameter.
# human DPP1 enzyme [3] = target: T2, human DPP1 enzyme; test: Human DPP1 enzyme single-point percent inhibition testing (HL-60 lysate, H-Gly-Arg-AMC substrate); type: biochemical; conditions: read-out: human DPP1 enzyme % inhibition @ 10 nM, 10 nM compound, 400 μM H-Gly-Arg-AMC, 10 min pre-incubation at 37° C.
# DPP1 in HL-60 cells [4] = target: T1, DPP1 in HL-60 cells; test: DPP1 cell single-point percent inhibition testing (HL-60 cells, H-Gly-Phe-AFC substrate); type: cell-based; conditions: read-out: DPP1 cell % inhibition @ 5 nM, 5 nM compound, 100 μM H-Gly-Phe-AFC, 60 min pre-incubation at 37° C.
# T1 sequence (P53634 25-134): as the sequence (P53634 25-134) above
# T1 sequence (P53634 231-394): as the sequence (P53634 231-394) above
# T1 sequence (P53634 395-463): as the sequence (P53634 395-463) above
SMILES,IC50 (DPP1 in HL-60 cells [1]),IC50 (human DPP1 enzyme [2]),inhibition at 0.01 µM (human DPP1 enzyme [3]),inhibition at 0.005 µM (DPP1 in HL-60 cells [4])
"Cn1c(=O)oc2ccc(-c3ccc(C[C@@H](C#N)NC(=O)[C@@H](N)C4CCCO4)cc3)cc21 (stereo in doubt) [Compound 210, (2S)-2-amino-N-[(1S)-1-cyano-2-[4-(3-methyl-2-oxo-1,3-benzoxazol-5-yl)phenyl]ethyl]-2-[(2S)-oxolan-2-yl]acetamide]",≥ 2.5 nM,5 to 15 nM,,
"Cn1c(=O)oc2ccc(-c3ccc(C[C@@H](C#N)NC(=O)[C@@H](N)C4CCCO4)cc3)cc21 (stereo in doubt) [Compound 212, (2S)-2-amino-N-[(1S)-1-cyano-2-[4-(3-methyl-2-oxo-1,3-benzoxazol-5-yl)phenyl]ethyl]-2-[(2R)-oxolan-2-yl]acetamide]",1 to 2.5 nM,≤ 5 nM,,
"Cn1c(=O)oc2ccc(-c3ccc(CC(C#N)NC(=O)C4(N)CCCC45CC5)c(F)c3)cc21 (stereo in doubt) [Compound 273A, (4S)-4-amino-N-[(1S)-1-cyano-2-[2-fluoro-4-(3-methyl-2-oxo-1,3-benzoxazol-5-yl)phenyl]ethyl]spiro[2.4]heptane-4-carboxamide]",≥ 2.5 nM,≥ 15 nM,,
C[C@@H](N)[C@@H](O)C(=O)N[C@H](C#N)Cc1ccc(-c2ccc3oc(=O)n(C)c3c2)cc1 [Compound 102B],≥ 2.5 nM,≥ 15 nM,,
"CO[C@@H](CN)C(=O)N[C@H](C#N)Cc1ccc(-c2ccc3oc(=O)n(C)c3c2)cc1 [Compound 103, (2S)-3-amino-N-[(1S)-1-cyano-2-[4-(3-methyl-2-oxo-1,3-benzoxazol-5-yl)phenyl]ethyl]-2-methoxypropanamide]",≥ 2.5 nM,≥ 15 nM,,
"CO[C@@H](CN(C)C)C(=O)N[C@H](C#N)Cc1ccc(-c2ccc3oc(=O)n(C)c3c2)cc1 [Compound 105, (2S)—N-[(1S)-1-cyano-2-[4-(3-methyl-2-oxo-1,3-benzoxazol-5-yl)phenyl]ethyl]-3-(dimethylamino)-2-methoxypropanamide]",1 to 2.5 nM,≥ 15 nM,,
"Cn1c(=O)oc2ccc(-c3ccc(C[C@@H](C#N)NC(=O)CC(N)C4CCCCC4)cc3)cc21 (stereo partly drawn) [Compound 190, 3-amino-N-[(1S)-1-cyano-2-[4-(3-methyl-2-oxo-2,3-dihydro-1,3-benzoxazol-5-yl)phenyl]ethyl]-3-cyclohexylpropanamide]",≥ 2.5 nM,,,
CN(C)C[C@](C)(O)C(=O)N[C@H](C#N)Cc1ccc(-c2ccc3c(n2)CCCN3)cc1 [Compound 396],,,≤ 40%,≤ 76.5%
CN(C)C[C@](C)(O)C(=O)N[C@H](C#N)Cc1ccc(-c2ccc3c(c2)C2(CC3)CCN(C)CC2)cc1F [Compound 397],,,≥ 66.7%,≤ 76.5%
CN(C)C[C@](C)(O)C(=O)N[C@H](C#N)Cc1ccc(-c2ccc3c(c2)C2(CCCN(C)C2)C(=O)N3C)cc1F (some centres unmarked) [Compound 398],,,≥ 66.7%,≥ 93.9%
CN(C)CCn1c(=O)oc2ccc(-c3ccc(C[C@@H](C#N)NC(=O)[C@@](C)(O)CN(C)C)c(F)c3)cc21 [Compound 399],,,≥ 66.7%,≥ 93.9%
Cc1cn2cc(-c3ccc(C[C@@H](C#N)NC(=O)[C@@](C)(O)CN(C)C)c(F)c3)cc2c(C)n1 [Compound 400],,,40 to 66.7%,76.5 to 93.9%
CN(C)C[C@](C)(O)C(=O)N[C@H](C#N)Cc1ccc(-c2ccc3c(c2)C2(CN(C)C2)OC3=O)cc1F [Compound 401],,,≥ 66.7%,≥ 93.9%
CCN1C(=O)Cc2ccc(-c3ccc(C[C@@H](C#N)NC(=O)[C@@](C)(O)CN(C)C)c(F)c3)cc21 [Compound 402],,,≥ 66.7%,76.5 to 93.9%
CN(C)C[C@](C)(O)C(=O)N[C@H](C#N)Cc1ccc(-c2ccc3c(c2)C2(CCN(C)C2)OC3=O)cc1F (some centres unmarked) [Compound 403],,,≥ 66.7%,76.5 to 93.9%
CN(C)C[C@](C)(O)C(=O)N[C@H](C#N)Cc1ccc(-c2ccc3cnn(C4CCN(C)CC4)c3c2)cc1F [Compound 404],,,≥ 66.7%,≤ 76.5%
CN(C)C[C@](C)(O)C(=O)N[C@H](C#N)Cc1ccc(-c2ccc3c(c2)C2(CCN(C4COC4)CC2)OC3)cc1F [Compound 405],,,≥ 66.7%,76.5 to 93.9%
CN(C)C[C@](C)(O)C(=O)N[C@H](C#N)Cc1ccc(-c2ccc3oc(=O)n(CCN4CCOCC4)c3c2)cc1F [Compound 406],,,≥ 66.7%,76.5 to 93.9%
CN(C)C[C@](C)(O)C(=O)N[C@H](C#N)Cc1ccc(-c2ccc(CN3CCN(C)CC3)cc2)cc1F [Compound 407],,,40 to 66.7%,≥ 93.9%
CN(C)C[C@](C)(O)C(=O)N[C@H](C#N)Cc1ccc(-c2ccc3oc(=O)n(C)c3c2)cc1F [Compound 408],,,≥ 66.7%,≥ 93.9%
CN(C)C[C@](C)(O)C(=O)N[C@H](C#N)Cc1ccc(-c2ccc3c(n2)CCCN3)cc1F [Compound 409],,,≥ 66.7%,76.5 to 93.9%
COCCN(C)CCn1c(=O)oc2ccc(-c3ccc(C[C@@H](C#N)NC(=O)[C@@](C)(O)CN(C)C)c(F)c3)cc21 [Compound 410],,,≥ 66.7%,≥ 93.9%
CN(C)C[C@](C)(O)C(=O)N[C@H](C#N)Cc1ccc(-c2ccc3nnn(C)c3c2)cc1 [Compound 413],,,40 to 66.7%,76.5 to 93.9%
CN(C)C[C@](C)(O)C(=O)N[C@H](C#N)Cc1ccc(-c2cnc3c(n2)CCCC3)cc1 [Compound 414],,,≤ 40%,≤ 76.5%
CN(C)C[C@](C)(O)C(=O)N[C@H](C#N)Cc1ccc(-c2ccc(S(=O)(=O)N3CCC3)cc2)cc1 [Compound 415],,,≤ 40%,≤ 76.5%
CN(C)C[C@](C)(O)C(=O)N[C@H](C#N)Cc1ccc(-c2ccc3cnn(C)c3c2)cc1F [Compound 416],,,40 to 66.7%,76.5 to 93.9%
CN(C)C[C@](C)(O)C(=O)N[C@H](C#N)Cc1ccc(-c2ccc3nnn(C)c3c2)cc1F [Compound 417],,,≥ 66.7%,76.5 to 93.9%
CN(C)C[C@](C)(O)C(=O)N[C@H](C#N)Cc1ccc(-c2cnc3c(n2)CCCC3)cc1F [Compound 418],,,40 to 66.7%,≤ 76.5%
CN(C)C[C@](C)(O)C(=O)N[C@H](C#N)Cc1ccc(-c2ccc(S(=O)(=O)N3CCC3)cc2)cc1F [Compound 419],,,≤ 40%,≤ 76.5%
CN(C)C[C@](C)(O)C(=O)N[C@H](C#N)Cc1cc2c(cc1F)-c1ccc(F)cc1CO2 [Compound 420],,,≤ 40%,≤ 76.5%
